Data published in ChEMBL document CHEMBL1201862, “PubChem BioAssay data set” (2004).
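The compound was tested at five concentrations on cells cultured in 96-well plates, with a 48-hour exposure period. Abbreviation: GI50, concentration required for 50% inhibition of growth.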 Activity calls are given as the source filed them. No stated cut-off is given here; in the data, active = GI50 up to about 1.1 µM and inactive = higher.

Legend:
Assay in all cases: inhibition of tumour cell growth, NCI panel, 48 h
ACHN = tested on: ACHN
COLO 205 = tested on: COLO 205
HOP-62 = tested on: HOP-62
IGROV-1 = tested on: IGROV-1
LOX IMVI = tested on: LOX IMVI
OVCAR-8 = tested on: OVCAR-8
RPMI-8226 = tested on: RPMI-8226
SK-MEL-2 = tested on: SK-MEL-2
SK-MEL-5 = tested on: SK-MEL-5
SK-OV-3 = tested on: SK-OV-3
SR = tested on: SR
SW-620 = tested on: SW-620
TK-10 = tested on: TK-10
U-251 = tested on: U-251
UACC-62 = tested on: UACC-62
UO-31 = tested on: UO-31
A549 = tested on: A549
HCT-116 = tested on: HCT-116

Measured: GI50

O=c1[nH]c(=O)n(C2CC(O)C(CO)O2)cc1C(F)(C(F)(F)F)C(F)(F)F (stereo not drawn)
inactive: ACHN > 100 µM | COLO 205 71 µM | HOP-62 > 100 µM | IGROV-1 > 100 µM | LOX IMVI > 100 µM | OVCAR-8 > 100 µM | RPMI-8226 45.6 µM | SK-MEL-2 > 100 µM | SK-MEL-5 > 100 µM | SK-OV-3 > 100 µM | SR > 100 µM | SW-620 > 100 µM | TK-10 > 100 µM | U-251 > 100 µM | UACC-62 > 100 µM | UO-31 > 100 µM

COC(=O)OCC1OC(N2C(=O)NC(=O)C(I)C2N=[N+]=[N-])CC1OC(=O)OC (stereo not drawn)
inactive: A549 > 100 µM | ACHN > 100 µM | COLO 205 > 100 µM | HCT-116 > 100 µM | HOP-62 > 100 µM | IGROV-1 > 100 µM | LOX IMVI > 100 µM | OVCAR-8 > 100 µM | RPMI-8226 > 100 µM | SK-MEL-5 > 100 µM | SK-OV-3 > 100 µM | SR > 100 µM | SW-620 > 100 µM | TK-10 > 100 µM | U-251 > 100 µM | UACC-62 > 100 µM | UO-31 > 100 µM

OCC(CO)C1c2cccc3ccc4cccc1c4c23
inactive: A549 > 100 µM | ACHN > 100 µM | COLO 205 > 100 µM | HCT-116 > 100 µM | HOP-62 > 100 µM | IGROV-1 > 100 µM | LOX IMVI > 100 µM | OVCAR-8 > 100 µM | RPMI-8226 > 100 µM | SK-MEL-2 > 100 µM | SK-MEL-5 > 100 µM | SK-OV-3 > 100 µM | SR > 100 µM | SW-620 > 100 µM | TK-10 > 100 µM | U-251 > 100 µM | UACC-62 > 100 µM | UO-31 62.5 µM

Cn1c(=O)c2[nH]cnc2n(CC(=O)O)c1=O
inactive: A549 > 100 µM | ACHN > 100 µM | COLO 205 > 100 µM | HCT-116 > 100 µM | HOP-62 > 100 µM | IGROV-1 > 100 µM | OVCAR-8 > 100 µM | RPMI-8226 > 100 µM | SK-MEL-2 > 100 µM | SK-MEL-5 > 100 µM | SK-OV-3 > 100 µM | SR > 100 µM | SW-620 > 100 µM | TK-10 > 100 µM | U-251 > 100 µM | UACC-62 > 100 µM | UO-31 > 100 µM

CCCNC(=S)NNC(=O)CSc1nc(-c2ccccc2)c(-c2ccccc2)[nH]1
inactive: A549 75.5 µM | ACHN 46.7 µM | COLO 205 39 µM | HCT-116 94.4 µM | HOP-62 > 100 µM | IGROV-1 65 µM | LOX IMVI 48.2 µM | OVCAR-8 73.1 µM | RPMI-8226 28.4 µM | SK-MEL-2 > 100 µM | SK-MEL-5 25.9 µM | SK-OV-3 > 100 µM | SR 29.2 µM | SW-620 99.3 µM | TK-10 70.5 µM | U-251 56.1 µM | UACC-62 > 100 µM | UO-31 30.8 µM

CC(/C=C/C(=O)c1sc(C(N)=S)nc1C)=C\c1ccccc1
inactive: A549 > 100 µM | ACHN 81.8 µM | COLO 205 54 µM | HCT-116 > 10 µM | HOP-62 > 100 µM | IGROV-1 > 100 µM | LOX IMVI 18.2 µM | OVCAR-8 > 100 µM | RPMI-8226 19.3 µM | SK-MEL-2 > 100 µM | SK-MEL-5 > 100 µM | SK-OV-3 > 100 µM | SR 31.9 µM | TK-10 > 100 µM | U-251 > 100 µM | UACC-62 > 100 µM | UO-31 > 100 µM

COC(=O)/C=C(\C(=O)OC)c1c2c3c(cc(OC)c(OC)c3c3ccccc13)CCN2C
inactive: A549 24.4 µM | ACHN 40.6 µM | COLO 205 14.7 µM | HCT-116 37.4 µM | HOP-62 25.1 µM | IGROV-1 26.8 µM | LOX IMVI 49.5 µM | OVCAR-8 45.7 µM | RPMI-8226 26.8 µM | SK-MEL-2 35.4 µM | SK-MEL-5 13.8 µM | SK-OV-3 62.4 µM | SR 26.1 µM | SW-620 35.5 µM | TK-10 48.4 µM | U-251 39 µM | UACC-62 24.2 µM | UO-31 46.2 µM

CC1CC[P+](c2ccccc2)(c2ccccc2)CC1
inactive: A549 > 100 µM | ACHN > 100 µM | COLO 205 18.7 µM | HCT-116 > 100 µM | HOP-62 > 100 µM | IGROV-1 98.2 µM | LOX IMVI 51.3 µM | OVCAR-8 > 100 µM | RPMI-8226 21.2 µM | SK-MEL-2 77.3 µM | SK-MEL-5 20.8 µM | SK-OV-3 > 100 µM | SR 55.5 µM | SW-620 > 100 µM | TK-10 > 100 µM | U-251 30.5 µM | UACC-62 58.5 µM | UO-31 > 100 µM

CC(C)(C)/N=N/C(C)(C)N=C=O
inactive: A549 > 100 µM | ACHN > 100 µM | COLO 205 > 100 µM | HCT-116 > 100 µM | HOP-62 > 100 µM | IGROV-1 > 100 µM | LOX IMVI > 100 µM | OVCAR-8 > 100 µM | RPMI-8226 > 100 µM | SK-MEL-2 > 100 µM | SK-MEL-5 > 100 µM | SK-OV-3 > 100 µM | SR > 100 µM | SW-620 > 100 µM | TK-10 > 100 µM | U-251 > 100 µM | UACC-62 > 100 µM | UO-31 > 100 µM

CC/C(=N\NS(=O)(=O)c1ccccc1)c1ccccc1
inactive: A549 > 100 µM | ACHN > 100 µM | COLO 205 > 100 µM | HCT-116 > 100 µM | HOP-62 > 100 µM | IGROV-1 > 100 µM | LOX IMVI > 100 µM | OVCAR-8 > 100 µM | RPMI-8226 > 100 µM | SK-MEL-2 > 100 µM | SK-MEL-5 > 100 µM | SK-OV-3 > 100 µM | SR > 100 µM | SW-620 > 100 µM | TK-10 > 100 µM | U-251 > 100 µM | UACC-62 > 100 µM | UO-31 > 100 µM

COc1cc2c(oc(=O)c3c4oc([Si](C)(C)C)cc4cc(OC)c23)c2cccc(O)c12
inactive: A549 > 100 µM | ACHN > 100 µM | COLO 205 > 100 µM | HCT-116 > 100 µM | HOP-62 > 100 µM | IGROV-1 > 100 µM | LOX IMVI > 100 µM | OVCAR-8 > 100 µM | RPMI-8226 > 100 µM | SK-MEL-2 > 100 µM | SK-MEL-5 > 100 µM | SK-OV-3 > 100 µM | SR > 100 µM | SW-620 > 100 µM | TK-10 > 100 µM | U-251 > 100 µM | UACC-62 > 100 µM | UO-31 > 100 µM
